Laboratory results reported in patent publication US8541576B2, “Substituted pyrazolo-quinazoline derivatives as kinase inhibitors” (Nerviano Medical Sciences SRL, priority 2010, dated 2013).
pEC50, pIC50: −log10 of the molar value.

How the values were obtained:
Full-length human PIM-1 = target: T1, Full-length human PIM-1 (Homo sapiens, UniProt P11309); experiment: Biochemical assay for inhibitors of PIM-1 kinase activity (trans-phosphorylation, Dowex resin, 33P-ATP); details: ATP 200 μM, enzyme 1 nM, Aktide 25 μM
T1 construct: Full-length human PIM-1 was expressed and purified; made in house
T1 sequence (P11309 whole entry): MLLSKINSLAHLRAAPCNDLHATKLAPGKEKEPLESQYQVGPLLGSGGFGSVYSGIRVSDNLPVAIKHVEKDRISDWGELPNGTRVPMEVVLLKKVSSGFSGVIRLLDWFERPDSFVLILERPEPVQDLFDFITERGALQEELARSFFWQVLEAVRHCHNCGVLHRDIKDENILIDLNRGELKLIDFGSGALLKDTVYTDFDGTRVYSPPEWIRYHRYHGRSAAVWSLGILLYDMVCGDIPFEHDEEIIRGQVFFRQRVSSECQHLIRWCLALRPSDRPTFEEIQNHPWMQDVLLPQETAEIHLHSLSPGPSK
Method: Biochemical assay for inhibitors of PIM-1 kinase activity
The inhibitory activity of putative kinase inhibitors and the potency of selected compounds were determined using a trans-phosphorylation assay.
Specific peptide or protein substrates are trans-phosphorylated by their specific ser-thr or tyr kinase in the presence of ATP traced with ^33P-γ-ATP, and in the presence of their own optimal buffer and cofactors.
At the end of the phosphorylation reaction, more than 98% unlabeled ATP and radioactive ATP is captured by an excess of the ion exchange Dowex® resin; the resin then settles down to the bottom of the reaction plate by gravity.
Supernatant is subsequently withdrawn and transferred into a counting plate, then evaluated by β-counting.
The buffer for PIM-1 assay was composed of HEPES 50 mM, at pH 7.5, with 10 mM MgCl2, 1 mM DTT, 3 μM NaVO3, and 0.2 mg/ml BSA
Full-length human PIM-1 was expressed and purified as described in Bullock A N, et al., J. Biol. Chem. 2005, 280, 41675-82.
1.7 μM PIM1 was incubated 1 hour RT at 28° C. in the presence of 125 μM ATP
ATP concentration: 200 μM
Enzyme concentration: 1 nM
Substrate concentration Aktide (Chemical Abstract Service Registry Number 324029-01-8): 25 μM
The test mix consisted of:
1) 3× Enzyme mix (done in Kinase Buffer 3×), 5 μL/well
2) 3× substrate and ATP mix (done in ddH2O), together with ^33P-γ-ATP, 5 μL/well
3) 3× test compounds (diluted into ddH2O—3% DMSO)-5 μL/well
For IC50 determination, test compounds are received as a 1 mM solution in 100% DMSO and distributed into 96-well plates: compounds are then plated into the first column of a new 96-well plate (A1 to G1), 100 μl/well.
An automated station (Biomek FX®, Beckman) is used for serial dilutions, producing 1:3 dilutions in 100% DMSO, from line A1 to A10, for all the compounds in the column. Moreover, 4-5 copies of daughter plates are prepared by reformatting 5 μL of this first set of 100% DMSO dilution plates into 384-deep well plates: one copy of these serial dilution plates with the test compounds is thawed on the day of study, reconstituted at the working concentration (3-fold the final concentration) with 162 μL/well of water and used for IC50 determination assays. In a standard experiment, the highest concentration (3×) of compounds is typically 30 μM, while the lowest one is typically 1.5 nM.
Each 384-well plate generates at least one curve of the standard inhibitor staurosporine and reference wells (total enzyme activity vs. no enzymatic activity) for evaluation of Z′ and signal to background (S/B) ratio.
384-well plates, V bottom (test plates) are prepared with 5 μl of compound diluted as previously described (3×) and then placed onto a PlateTrak® 12 robotized station (Perkin Elmer; the robot has one 384-tip pipetting head for assay start, plus one 96-tip head for dispensing resin) together with one reservoir for Enzyme mix (3×) and one for ATP mix (3×).
Data are analyzed by an internally customized version of the “Assay Explorer®” SW package, which provides sigmoidal fitting of the ten-dilution curves for IC50 determination in secondary assay/hit confirmation routines.

Full-length human PIM-2 = target: T2, Full-length human PIM-2 (Homo sapiens, UniProt Q9P1W9); experiment: PIM-2 kinase inhibition assay: Dowex technique; format: biochemical; details: ATP 4 μM, enzyme 1.5 nM, Aktide 5 μM
T2 construct: Full-length human PIM-2 was expressed and purified; made in house
T2 sequence (Q9P1W9 whole entry): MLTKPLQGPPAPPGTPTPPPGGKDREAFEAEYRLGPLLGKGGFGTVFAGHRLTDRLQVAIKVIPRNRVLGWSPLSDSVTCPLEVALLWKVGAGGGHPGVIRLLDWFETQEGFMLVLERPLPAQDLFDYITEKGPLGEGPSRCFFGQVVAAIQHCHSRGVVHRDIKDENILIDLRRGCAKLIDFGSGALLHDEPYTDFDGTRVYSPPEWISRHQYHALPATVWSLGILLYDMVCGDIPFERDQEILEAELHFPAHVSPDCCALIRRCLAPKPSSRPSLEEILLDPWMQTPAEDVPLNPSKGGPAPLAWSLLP
Method: Method for PIM-2 Kinase Inhibition Assay: Dowex Technique
The buffer for PIM-2 assay was composed of HEPES 50 mM, at pH 7.5, with 1 mM MgCl2, 1 mM DTT, 3 μM Na3VO4, and 0.2 mg/ml BSA
Full-length human PIM-2 was expressed and purified as described in Fedorov O, et al. (2007) PNAS 104, 51, 20523-28.
Assay Conditions (Final Concentrations):
Enzyme concentration=1.5 nM
Aktide substrate (Chemical Abstract Service Registry Number 324029-01-8)=5 μM
See above: same procedure as described for PIM-1.

[1] = tested on: MV-4-11 (biphenotypic B myelomonocytic leukemia) cells; experiment: In vitro cell proliferation assay (CellTiter-Glo); format: cell-based; details: Homo sapiens, MV4-11, antiproliferative activity, 72 hours
Method: In Vitro Cell Proliferation Assay:
MV-4-11 (biphenotypic B myelomonocytic leukemia) cells (1250 cells/well) were seeded in white 384 well-plates in complete medium (RPMI 1640 or EMEM plus 10% Fetal bovine serum) and treated with compounds dissolved in 0.1% DMSO, 24 h after seeding. The cells were incubated at 37° C. and 5% CO2 and after 72 hours the plates were processed using CellTiter-Glo® assay (Promega) following the manufacturer's instruction. CellTiter-Glo® is a homogenous method based on the quantification of the ATP present, an indicator of metabolically active cells. ATP is quantified using a system based on luciferase and D-luciferin resulting into light generation. The luminescent signal is proportional to the number of cells present in culture.
Briefly 25 μl/well reagent solution was added to each wells and after 5 minutes shacking microplates were red by Envision® (PerkinElmer) luminometer. The luminescent signal was proportional to the number of cells present in culture.
Inhibitory activity was evaluated comparing treated versus control data using Assay Explorer (MDL) program. IC50 was calculated using sigmoidal interpolation curve.

BaF3 parental line = experiment: In vitro cell proliferation potency assay, BaF3 parental line with IL-3 (Cell Titer Glo); format: cell-based, murine; details: Mus musculus; BaF3 parental cells with mIL-3, incubated overnight; read-out: Prolif BaF3 IL3 (EC50)
Description: (§1) BaF3 is a murine interleukin-3 dependent pro-B cell line, useful as a model system for assessing both the potency and downstream signaling of kinase oncogenes (“Ba/F3 cells and their use in kinase drug discovery”, Warmuth, M, et al, (January 2007) Current Opinion in Oncology, Vol 19(1):55-60). BaF3 parental line was obtained from the DSMZ repository. BaF3 lines transfected with PIM1 or PIM2 were generated. Mouse IL-3 was purchased from R&D Systems. G418 was purchased from Clontech. Media for BaF3 parental line contained RPMI, 10% FBS, 2 mM L-Glutamine, 2 ng/mL mIL-3. Media for BaF3 PIM1 & 2 lines contained RPMI, 10% FBS, 2 mM L-Glutamine, […]. Media for MM1.S (multiple myeloma cells) line contained RPMI, 10% FBS, 2 mM L-Glutamine.
(§2) Parental cells, BaF3 PIM1 cells, BaF3 PIM2 cells, and MM1.S (multiple myeloma) cells were seeded at 2 k/well, 5 k/well, 5 k/well, and 10 k/well respectively, in a 384-well plate, at 45 μL/well. Test compound was added at 5 μL/well. BaF3 cells (parental and transfected) were incubated overnight, while MM1.S cells were incubated for 72 hours at 37° C., 5% CO2. CELL TITER GLO® Reagent (Promega) was added at 50 μL/well, the plates were incubated for 30 minutes, and their luminescence read on an HT Analyst. IC50/EC50 values for the test compound were calculated.

BaF3 PIM1 cells = experiment: In vitro cell proliferation potency assay, BaF3 transfected with PIM1 (Cell Titer Glo); format: cell-based, murine; details: Mus musculus, incubated overnight, read-out: Prolif BaF3 PIM1 (EC50)
Description: as §1, §2

[2] = tested on: phosphorylation of BAD at Ser112 by PIM kinases; experiment: Western blot of phospho-BAD (Ser112) in MV-4-11 cells; format: cell-based, human; details: different concentrations, 3 hours, compared to DMSO treated cells, FIG. 2
Method: To further establish that the cytotoxicity of the compounds of the present invention resulted from the inhibition of PIM kinases, we examined the phosphorylation of the pro-apoptotic protein BAD by PIM kinases in the presence or absence of PIM inhibitors in MV-4-11 leukemia cell lines.
MV-4-11 cells were plated in 6 well plates at 1.5×10^6 cells/ml and treated with different concentrations of PIM-inhibitors for 3 hours. Cells were harvested, washed with PBS buffer and lysed with lysis buffer (2% SDS, 100 mM Tris ph 7.5, 1:100 Phosphatase Inhibitor Cocktail 1 (SIGMA) and 1:100 Phosphatase Inhibitor Cocktail 2(SIGMA) and Complete Protease Inhibitor (Roche). The protein concentration in the lysates was quantified using the BCA Protein Assay Kit (Pierce). Equal amounts of protein were loaded onto 4-12% gradient Tri-glycine gel for SDS-PAGE analysis. Then the proteins were transferred to PVDF membranes (Millipore) for Western Blotting. Membranes were probed with the antibody for phospho-Bad (Ser112) (Cell Signaling Technologies).

Compound	pIC50 (Full-length human PIM-1)	pIC50 (Full-length human PIM-2)	pIC50 [1]	pEC50 (BaF3 parental line)	pEC50 (BaF3 PIM1 cells)	levels of pBAD (s112) by western blot [2]
CN1CCN(c2ccc(Oc3ncc4ccc5c(C(N)=O)nn(C(C)(C)C)c5c4n3)cc2)CC1 [Compound 51, 1-tert-butyl-8-[4-(4-methylpiperazin-1-yl)phenoxy]-1H-pyrazolo[4,3-h]quinazoline-3-carboxamide]	8.40	7.82	6.72	5.03	6.68	–
NC(=O)c1nn(C2CCC(N)CC2)c2c1ccc1cnc(-c3ccsc3)nc12 (centres unmarked) [Compound 112, 1-(4-aminocyclohexyl)-8-(thiophen-3-yl)-1H-pyrazolo[4,3-h]quinazoline-3-carboxamide]	6.52	7.37	–	5.70	5.89	–
CSc1ncc2ccc3c(C(N)=O)nn(C(C)(C)C)c3c2n1 [Compound 85, 1-tert-butyl-8-(methylsulfanyl)-1H-pyrazolo[4,3-h]quinazoline-3-carboxamide]	9.00	8.70	6.99	4.89	6.51	dose dependent reduction
CSc1ncc2ccc3c(C(N)=O)nn(C4CN5CCC4CC5)c3c2n1 (centres unmarked) [Compound 103, 1-(1-azabicyclo[2.2.2]oct-3-yl)-8-(methylsulfanyl)-1H-pyrazolo[4,3-h]quinazoline-3-carboxamide]	7.82	7.55	6.66	–	–	–
CSc1ncc2ccc3c(C(N)=O)nn(C4CCCNC4)c3c2n1 (centres unmarked) [Compound 92, 8-(methylsulfanyl)-1-(piperidin-3-yl)-1H-pyrazolo[4,3-h]quinazoline-3-carboxamide]	7.66	7.68	6.83	–	–	–
CNC(=O)c1nn(C(C)(C)C)c2c1ccc1cnc(SC)nc12 [Compound 7, 1-tert-butyl-N-methyl-8-(methylsulfanyl)-1H-pyrazolo[4,3-h]quinazoline-3-carboxamide]	7.39	6.81	5.75	–	–	–
CSc1ncc2ccc3c(C(N)=O)nn(C4CCC(N)CC4)c3c2n1 (centres unmarked) [Compound 93, 1-(4-aminocyclohexyl)-8-(methylsulfanyl)-1H-pyrazolo[4,3-h]quinazoline-3-carboxamide]	9.00	9.00	6.35	5.10	7.36	–
CSc1ncc2ccc3c(C(N)=O)nn(C4CCNCC4)c3c2n1 [Compound 91, 8-(methylsulfanyl)-1-(piperidin-4-yl)-1H-pyrazolo[4,3-h]quinazoline-3-carboxamide]	7.72	7.34	5.84	–	–	–
CSc1ncc2ccc3c(C(N)=O)nn(CC4CCNCC4)c3c2n1 [Compound 17, 8-(methylsulfanyl)-1-(piperidin-4-ylmethyl)-1H-pyrazolo[4,3-h]quinazoline-3-carboxamide]	8.05	6.80	5.81	–	–	–
CN(C)c1ncc2ccc3c(C(N)=O)nn(C(C)(C)C)c3c2n1 [Compound 52, 1-tert-butyl-8-(dimethylamino)-1H-pyrazolo[4,3-h]quinazoline-3-carboxamide]	7.89	7.68	6.06	–	–	–
